This is an account of results in US8476253B2, “Amide derivative” (Daiichi Sankyo Company, Limited, priority 2009, dated 2013).

pKi: −log10 of the molar value. Where a name gives a salt, the structure may show the parent alone. Read-outs that look alike come from different tables or passages of the source.

Usually pKi stands for the negative decadic logarithm of the Ki, by convention in mol/L.

The target of experiment [1] is T1, human M3 receptor (Homo sapiens, UniProt P20309).
T1 construct: expressed in transfected cells; host or cells: CHO cells
T1 sequence (P20309 whole entry): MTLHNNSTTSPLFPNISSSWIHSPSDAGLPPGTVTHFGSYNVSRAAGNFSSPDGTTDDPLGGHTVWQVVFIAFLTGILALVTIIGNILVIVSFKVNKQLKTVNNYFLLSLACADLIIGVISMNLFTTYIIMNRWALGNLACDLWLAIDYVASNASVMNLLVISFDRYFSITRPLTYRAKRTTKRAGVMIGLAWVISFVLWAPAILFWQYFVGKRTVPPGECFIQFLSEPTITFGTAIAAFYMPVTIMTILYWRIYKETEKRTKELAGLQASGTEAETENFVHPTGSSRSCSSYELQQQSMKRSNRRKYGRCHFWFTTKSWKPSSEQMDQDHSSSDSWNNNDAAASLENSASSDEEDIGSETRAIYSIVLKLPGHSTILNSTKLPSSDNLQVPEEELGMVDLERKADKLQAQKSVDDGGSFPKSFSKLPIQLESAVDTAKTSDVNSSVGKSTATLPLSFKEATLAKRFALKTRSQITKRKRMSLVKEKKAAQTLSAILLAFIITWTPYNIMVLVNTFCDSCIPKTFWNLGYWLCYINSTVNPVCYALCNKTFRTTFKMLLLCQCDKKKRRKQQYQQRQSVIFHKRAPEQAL
Put plainly: Test for binding to human M3 receptor. In a few lines: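 CHO-cell crude membranes expressing human M3 were incubated with [N-methyl-3H]-(−)-scopolamine methyl chloride in 50 mM Tris-HCl, 0.5 mM EDTA, pH 7.4, for 60 min at room temperature. Bound ligand was collected on PEI-pretreated glass-fibre filters and counted by liquid scintillation. Ki was calculated from IC50 and the radioligand Kd.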

The test system of experiment [2] is muscarine M3 receptor. Put plainly: Effect of suppressing methacholine-induced airway contraction (in vivo, intratracheal administration). Particulars: guinea pigs, intratracheal administration 60 minutes before 30 μg/kg i.v. methacholine, AUC of increase in airway pressure over 10 minutes. More on the design: species or system guinea pig. Put shortly:
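Anesthetized, gallamine-paralysed, ventilated male Hartley guinea pigs (350–550 g); compound in 5% glucose given intratracheally 60 min before 30 μg/kg i.v. methacholine. Airway pressure AUC over 10 min scored; ID50 from inhibition versus 5% glucose vehicle group.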

The target of experiment [3] is T2, neurokinin NK2 receptor (Cavia porcellus, UniProt Q64077).
T2 construct: Using healthy guinea pigs (body weight, 350 to 550 g; Hartley male guinea pigs); from tissue; host or cells: live anaesthetised Hartley male guinea pigs (airway, in vivo)
T2 sequence (Q64077 1-402): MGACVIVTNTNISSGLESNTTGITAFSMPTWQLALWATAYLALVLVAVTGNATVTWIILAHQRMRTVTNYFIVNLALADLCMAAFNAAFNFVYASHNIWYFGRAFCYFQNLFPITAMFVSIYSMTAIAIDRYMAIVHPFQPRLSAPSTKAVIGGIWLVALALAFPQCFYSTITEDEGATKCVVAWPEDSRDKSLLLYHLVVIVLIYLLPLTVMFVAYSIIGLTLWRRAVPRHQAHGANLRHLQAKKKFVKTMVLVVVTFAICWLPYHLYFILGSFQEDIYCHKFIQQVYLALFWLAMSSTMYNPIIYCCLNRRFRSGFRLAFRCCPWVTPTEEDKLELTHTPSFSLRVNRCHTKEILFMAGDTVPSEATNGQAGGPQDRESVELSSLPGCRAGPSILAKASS
Put plainly: Effect of suppressing neurokinin A-induced airway contraction (in vivo, intratracheal administration). More on the design: species or system guinea pig. To be noted: guinea pigs, intratracheal administration 60 minutes before 4 μg/kg i.v. NKA, AUC of increase in airway pressure over 10 minutes; for ED50: guinea pig, read-out: ID50 (the source's name). As for the experimental part: Using healthy guinea pigs (body weight, 350 to 550 g; Hartley male guinea pigs), the effect of suppressing airway contraction induced by neurokinin A (NKA), which is an NK2 receptor agonist, was examined by a modified method of Konzett-Roessler (Naunyn-Schmiedebergs Arch. Exp. Pathol. Pharmakol. 195, 71 [1940]) using airway pressure as an indicator.
A tracheal cannula and a venous cannula were attached to a guinea pig anesthetized with pentobarbital (50 mg/mL solution, 0.40 to 0.50 mL/body, subcutaneous administration). An arterial cannula filled with heparin-containing physiological saline (100 U/mL) was further attached, and blood pressure and heart rate were monitored via an amplifier and an instantaneous heart rate meter. Subsequently, gallamine (20 mg/body, intravenous administration) was administered to terminate spontaneous breathing, and 10 mL/kg of positive pressure breathing (Ugo-Basile Biological Research Apparatus, Cat. No. 7025) was rapidly performed at 60 times/min. The airway pressure during artificial breathing was detected with a pressure transducer (TP-200T or TP-400T; Nihon Kohden Corporation) attached to a side branch of the tracheal cannula, amplified (AP-601G; Nihon Kohden Corporation), and recorded in a recorder. After the airway pressure, blood pressure, and heart rate were stabilized, 4 μg/kg of NKA was intravenously administered from the venous cannula to induce airway contraction, and the airway pressure was measured for the following 10 minutes.
The test substance was dissolved in a 5% glucose solution, and a 0.5 mL/kg solution was intratracheally administered with an intratracheal administration apparatus (model 1A-1B; Penn-Century, Inc.) 60 minutes before stimulation with NKA.
The AUC of increase in the airway pressure over 10 minutes after administration of NKA was determined as the intensity of NKA-induced airway contraction and calculated as an ID50 value from the inhibition rate based on the value of the control group (5% glucose solution intratracheal administration group).

The mark [4] stands for this setting: CHO cells expressing human M3 receptor, [N-methyl-3H]-(-)-Scopolamine methyl chloride 0.5 nM, Ki from IC50 and Kd, read-out: Ki.

As to `CN(CCN1CCC(OC(=O)Nc2ccccc2-c2ccccc2)CC1)C(=O)CCCCN(C)c1ccc(C(=O)N(C)CCCN(C)C(=O)CO[C@H]2Cc3ccccc3C23CCN(CC[C@@]2(c4ccc(F)cc4)CN(C(=O)c4cc(C(F)(F)F)cc(C(F)(F)F)c4)CO2)CC3)cc1` [Example 38, 1-{2-[{5-[{4-[{3-[({[(2S)-1′-{2-[(5R)-3-[3,5-Bis(trifluoromethyl)benzoyl]-5-(4-fluorophenyl)-1,3-oxazolidin-5-yl]ethyl}-2,3-dihydrospiro[indene-1,4′-piperidin]-2-yl]oxy}acetyl)(methy)amino]propyl}(methyl)carbamoyl]phenyl}(methyl)amino]pentanoyl}(methyl)amino]ethyl}piperidin-4-yl biphenyl-2-ylcarbamate trihydrochloride], in experiment [1] (setting [4]), the pKi is 8.74. This molecule had an ID50 in experiment [2] of 0.0257 mg/kg. For the same molecule, in experiment [3], the ED50 was found to be 0.0253 mg/kg.

`CN(CCN1CCC(OC(=O)Nc2ccccc2-c2ccccc2)CC1)C(=O)CCCCCNc1ccc(C(=O)N(C)CCN(C)C(=O)CO[C@H]2Cc3ccccc3C23CCN(CC[C@@]2(c4ccc(F)cc4)CN(C(=O)c4cc(C(F)(F)F)cc(C(F)(F)F)c4)CO2)CC3)cc1` [Example 16, 1-(2-{[6-({4-[{2-[({[(2S)-1′-{2-[(5R)-3-[3,5-Bis(trifluoromethyl)benzoyl]-5-(4-fluorophenyl)-1,3-oxazolidin-5-yl]ethyl}-2,3-dihydrospiro[indene-1,4′-piperidin]-2-yl]oxy}acetyl)(methyl)amino]ethyl}(methyl)carbamoyl]phenyl}amino)hexanoyl](methyl)amino}ethyl)piperidin-4-yl biphenyl-2-ylcarbamate trihydrochloride] showed a pKi in experiment [1] of 8.62. Moreover, the ID50 in experiment [2] (trihydrochloride) stood at 0.0191 mg/kg. Also, the ED50 in experiment [3] turned out to be 0.0286 mg/kg.

In turn, `CN(CCN1CCC(OC(=O)Nc2ccccc2-c2ccccc2)CC1)C(=O)CCCCCNc1ccc(C(=O)N2CCCN(C(=O)CO[C@H]3Cc4ccccc4C34CCN(CC[C@@]3(c5ccc(F)cc5)CN(C(=O)c5cc(C(F)(F)F)cc(C(F)(F)F)c5)CO3)CC4)CC2)cc1` [Example 110, 1-{2-[{6-[(4-{[4-({[(2S)-1′-{2-[(5R)-3-[3,5-Bis(trifluoromethyl)benzoyl]-5-(4-fluorophenyl)-1,3-oxazolidin-5-yl)ethyl}-2,3-dihydrospiro[indene-1,4′-piperidin]-2-yl]oxy}acetyl)-1,4-diazepan-1-yl]carbonyl}phenyl)amino]hexanoyl}(methyl)amino]ethyl}piperidin-4-yl biphenyl-2-ylcarbamate trihydrochloride] gave a pKi in experiment [1] of 9.03. The same molecule registered an ID50 in experiment [2] of 0.0318 mg/kg. The ED50 in experiment [3] amounted to 0.0135 mg/kg.

In the case of `CN(CCN1CCC(OC(=O)Nc2ccccc2-c2ccccc2)CC1)C(=O)CCCCCNc1nc2ccc(C(=O)N(C)CCCN(C)C(=O)CO[C@H]3Cc4ccccc4C34CCN(CC[C@@]3(c5ccc(F)cc5)CN(C(=O)c5cc(C(F)(F)F)cc(C(F)(F)F)c5)CO3)CC4)cc2s1` [Example 93, 1-(2-{[6-({6-[{3-[({[(2S)-1′-{2-[(5R)-3-[3,5-Bis(trifluoromethyl)benzoyl]-5-(4-fluorophenyl)-1,3-oxazolidin-5-yl]ethyl}-2,3-dihydrospiro[indene-1,4′-piperidin]-2-yl]oxy}acetyl)(methy)amino]propyl}(methyl)carbamoyl]-1,3-benzothiazol-2-yl}amino)hexanoyl](methyl)amino}ethyl)piperidin-4-yl biphenyl-2-ylcarbamate], the pKi in experiment [1] (setting [4]) is 9.22. Further, the ID50 in experiment [2] stood at 0.0372 mg/kg; in experiment [3], 0.0437 mg/kg.
